Assay results reported in patent publication US10894784B2, “Heteroarylbenzimidazole compounds” (BAYER PHARMA AKTIENGESELLSCHAFT, priority 2015, dated 2021).
Where two headings read alike, the source gives them in different places.

Target: TBK1 (Homo sapiens (Human), UniProt Q9UHD2)
Assay: TBK1 low ATP kinase assay (in vitro assay 1)
Format: biochemical
[1] = in vitro assay 1, read-out: TBK1 low ATP kinase assay IC50
[2] = TBK1 low ATP kinase assay IC50, in vitro assay 1

TBK1, sequence (Q9UHD2 whole entry): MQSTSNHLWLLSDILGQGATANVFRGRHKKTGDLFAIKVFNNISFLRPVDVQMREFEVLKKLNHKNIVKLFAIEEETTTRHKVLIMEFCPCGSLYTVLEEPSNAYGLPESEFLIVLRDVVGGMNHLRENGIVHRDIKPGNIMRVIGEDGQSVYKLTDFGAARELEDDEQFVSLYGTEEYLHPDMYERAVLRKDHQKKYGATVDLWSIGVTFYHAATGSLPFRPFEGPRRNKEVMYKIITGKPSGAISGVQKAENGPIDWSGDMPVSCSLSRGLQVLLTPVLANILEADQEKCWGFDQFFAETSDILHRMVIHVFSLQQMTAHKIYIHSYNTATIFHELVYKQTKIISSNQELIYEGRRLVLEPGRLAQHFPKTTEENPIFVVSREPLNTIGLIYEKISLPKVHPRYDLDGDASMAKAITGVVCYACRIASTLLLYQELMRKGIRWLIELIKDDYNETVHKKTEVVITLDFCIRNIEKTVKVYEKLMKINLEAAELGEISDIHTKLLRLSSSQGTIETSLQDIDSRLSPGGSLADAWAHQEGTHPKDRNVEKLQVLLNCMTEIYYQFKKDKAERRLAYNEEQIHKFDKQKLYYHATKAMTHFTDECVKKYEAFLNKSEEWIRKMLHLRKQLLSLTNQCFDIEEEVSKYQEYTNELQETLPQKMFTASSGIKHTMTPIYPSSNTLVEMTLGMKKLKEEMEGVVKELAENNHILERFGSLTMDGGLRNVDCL

| Compound | IC50 [1] [nM] | IC50 [2] [nM] |
| --- | --- | --- |
| CCN(CC)c1cc(-c2ccc3nc(Nc4cc(CN5CCN(C(=O)OC(C)(C)C)CC5)ccn4)[nH]c3c2)ncn1 [Example 155.01, tert-butyl 4-{[2-({6-[6-(diethylamino)pyrimidin-4-yl]-1H-benzimidazol-2-yl}amino)pyridin-4-yl]methyl}piperazine-1-carboxylate] | 36 |  |
| C[C@H](c1ccnc(Nc2nc3ccc(-c4cc(OCC(F)(F)F)ncn4)cc3[nH]2)c1)N1CCN(C(=O)CC(F)(F)F)CC1 [Example 119.02, 3,3,3-trifluoro-1-(4-{(1R)-1-[2-({6-[6-(2,2,2-trifluoroethoxy)pyrimidin-4-yl]-1H-benzimidazol-2-yl}amino)pyridin-4-yl]ethyl}piperazin-1-yl)propan-1-one] | 6.69 |  |
| CCOc1cc(-c2ccc3nc(Nc4cc(CN5CCN(C(=O)CC(F)(F)F)CC5)ccn4)[nH]c3c2)ncn1 [Example 161.02, 1-{4-[(2-{[6-(6-ethoxypyrimidin-4-yl)-1H-benzimidazol-2-yl]amino}pyridin-4-yl)methyl]piperazin-1-yl}-3,3,3-trifluoropropan-1-one] | 7.7 |  |
| COc1c(-c2ccc3nc(Nc4cc(C(C)N5CCN(C(=O)CC(F)(F)F)CC5)ccn4)[nH]c3c2)ncnc1N1CCCC1 (single isomer, unassigned) [Example 112.03, 3,3,3-trifluoro-1-(4-{(1R or 1S)-1-[2-({6-[5-methoxy-6-(pyrrolidin-1-yl)pyrimidin-4-yl]-1H-benzimidazol-2-yl}amino)pyridin-4-yl]ethyl}piperazin-1-yl)propan-1-one] | 1.4 |  |
| Cc1cc(-c2ccc3nc(Nc4cc(C(C)N5CCN(C(=O)CC(F)(F)F)CC5)ccn4)[nH]c3c2)n(C)n1 (single isomer, unassigned) [Example 89.02, 1-{4-[(1R or 1S)-1-(2-{[6-(1,3-dimethyl-1H-pyrazol-5-yl)-1H-benzimidazol-2-yl]amino}pyridin-4-yl)ethyl]piperazin-1-yl}-3,3,3-trifluoropropan-1-one] | 450 |  |
| COc1cnccc1-c1ccc2nc(Nc3cc(CN4CCN(C(=O)C(C)(C)OC)CC4)ccn3)[nH]c2c1 [Example 04.10, 2-methoxy-1-{4-[(2-{[6-(3-methoxypyridin-4-yl)-1H-benzimidazol-2-yl]amino}pyridin-4-yl)methyl]piperazin-1-yl}-2-methylpropan-1-one] | 28.3 |  |
| O=C(CC(F)(F)F)N1CCN(Cc2ccnc(Nc3nc4ccc(-c5cnn(CC6CCC6)c5)cc4[nH]3)c2)CC1 [Example 59.02.01, 1-(4-{[2-({6-[1-(cyclobutylmethyl)-1H-pyrazol-4-yl]-1H-benzimidazol-2-yl}amino)pyridin-4-yl]methyl}piperazin-1-yl)-3,3,3-trifluoropropan-1-one] |  | 7.56 |
| COCC1CCN(S(=O)(=O)N2CCN(Cc3ccnc(Nc4nc5ccc(-c6ncncc6OC)cc5[nH]4)c3)CC2)CC1 [Example 35.01.16, N-{4-[(4-{[4-(methoxymethyl)piperidin-1-yl]sulfonyl}piperazin-1-yl)methyl]pyridin-2-yl}-6-(5-methoxypyrimidin-4-yl)-1H-benzimidazol-2-amine] | 45.9 |  |
| Cc1nccc(-c2ccc3nc(Nc4cc(C(C)N5CCN(C(=O)CC(F)(F)F)CC5)ccn4)[nH]c3c2)n1 (single isomer, unassigned) [Example 24.05.01.A, 3,3,3-trifluoro-1-{4-[(1R or 1S)-1-(2-{[6-(2-methylpyrimidin-4-yl)-1H-benzimidazol-2-yl]amino}pyridin-4-yl)ethyl]piperazin-1-yl}propan-1-one] | 45.4 |  |
| CCOc1nccc(-c2ccc3nc(Nc4cc(CN5CCN(C(=O)CC6CC6)CC5)ccn4)[nH]c3c2)n1 [Example 26.01.05, 2-cyclopropyl-1-{4-[(2-{[6-(2-ethoxypyrimidin-4-yl)-1H-benzimidazol-2-yl]amino}pyridin-4-yl)methyl]piperazin-1-yl}ethanone] | 14.1 |  |
| CSc1ncc(-c2ccc3nc(Nc4cc(CN5CCN(C(=O)C6CC6)CC5)ccn4)[nH]c3c2)cn1 [Example 45.05.03, cyclopropyl(4-{[2-({6-[2-(methylsulfanyl)pyrimidin-5-yl]-1H-benzimidazol-2-yl}amino)pyridin-4-yl]methyl}piperazin-1-yl)methanone] | 840 |  |
| Cc1cc(-c2ccc3nc(Nc4cc(C(C)N5CCN(C(=O)CC(F)(F)F)CC5)ccn4)[nH]c3c2)ncn1 (racemic) [Example 30.02.01, (rac)-3,3,3-trifluoro-1-{4-[1-(2-{[6-(6-methylpyrimidin-4-yl)-1H-benzimidazol-2-yl]amino}pyridin-4-yl)ethyl]piperazin-1-yl}propan-1-one] |  | 4.46 |
| O=C(C1CC1)N1CCN(Cc2ccnc(Nc3nc4ccc(-c5ccn(CC6CC6)c(=O)c5)cc4[nH]3)c2)CC1 [Example 44.02, 4-{2-[(4-{[4-(cyclopropylcarbonyl)piperazin-1-yl]methyl}pyridin-2-yl)amino]-1H-benzimidazol-6-yl}-1-(cyclopropylmethyl)pyridin-2(1H)-one] | 66.8 |  |
| Cc1cc(-c2ccc3nc(Nc4cc(CN5CCN(C(=O)CC(F)(F)F)CC5)ccn4)[nH]c3c2)ccn1 [Example 01.03, 3,3,3-trifluoro-1-{4-[(2-{[6-(2-methylpyridin-4-yl)-1H-benzimidazol-2-yl]amino}pyridin-4-yl)methyl]piperazin-1-yl}propan-1-one] | 53.5 |  |
| COc1cnccc1-c1ccc2nc(Nc3cc(CN4CCN(C(=O)C5CC5(F)F)CC4)ccn3)[nH]c2c1 (racemic) [Example 04.08, ((1RS)-2,2-difluorocyclopropyl){4-[(2-{[6-(3-methoxypyridin-4-yl)-1H-benzimidazol-2-yl]amino}pyridin-4-yl)methyl]piperazin-1-yl}methanone] | 13.8 |  |
| CC(c1ccnc(Nc2nc3ccc(-c4cnn(CC5CC5(F)F)c4)c(F)c3[nH]2)c1)N1CCN(C(=O)CC(F)(F)F)CC1 (single isomer, unassigned) [Example 86.02, 1-{4-[(1R or 1S)-1-(2-{[6-(1-{[(1RS)-2,2-difluorocyclopropyl]methyl}-1H-pyrazol-4-yl)-7-fluoro-1H-benzimidazol-2-yl]amino}pyridin-4-yl)ethyl]piperazin-1-yl}-3,3,3-trifluoropropan-1-one] | 2.1 |  |
| CN(c1cc(-c2ccc3nc(Nc4cc(CN5CCN(C(=O)CC(F)(F)F)CC5)ccn4)[nH]c3c2)ncn1)C1CC1 [Example 157.02, 1-[4-({2-[(6-{6-[cyclopropyl(methyl)amino]pyrimidin-4-yl}-1H-benzimidazol-2-yl)amino]pyridin-4-yl}methyl)piperazin-1-yl]-3,3,3-trifluoropropan-1-one] | 8.9 |  |
| CC(c1ccnc(Nc2nc3ccc(-c4cc(N5CCCC5)ncn4)cc3[nH]2)c1)N1CCN(C(=O)C2(C(F)(F)F)CC2)CC1 (single isomer, unassigned) [Example 117.04, (4-{(1R or 1S)-1-[2-({6-[6-(pyrrolidin-1-yl)pyrimidin-4-yl]-1H-benzimidazol-2-yl}amino)pyridin-4-yl]ethyl}piperazin-1-yl)[1-(trifluoromethyl)cyclopropyl]methanone] | 0.819 |  |
| CC(c1ccnc(Nc2nc3ccc(-c4cc(N5CCC5)ncn4)cc3[nH]2)c1)N1CCN(C(=O)OC(C)(C)C)CC1 (single isomer, unassigned) [Example 115.01, tert-butyl 4-{(1R or 1S)-1-[2-({6-[6-(azetidin-1-yl)pyrimidin-4-yl]-1H-benzimidazol-2-yl}amino)pyridin-4-yl]ethyl}piperazine-1-carboxylate] | 1.4 |  |
| CCNc1cc(-c2ccc3nc(Nc4cc(CN5CCN(C(=O)CC(F)(F)F)CC5)ccn4)[nH]c3c2)ncn1 [Example 149.02, 1-(4-{[2-({6-[6-(ethylamino)pyrimidin-4-yl]-1H-benzimidazol-2-yl}amino)pyridin-4-yl]methyl}piperazin-1-yl)-3,3,3-trifluoropropan-1-one] | 2 |  |
| O=C(C1CC1)N1CCN(Cc2ccnc(Nc3nc4ccc(-c5cc(NCC6CC6)ncn5)cc4[nH]3)c2)CC1 [Example 142.03, cyclopropyl[4-({2-[(6-{6-[(cyclopropylmethyl)amino]pyrimidin-4-yl}-1H-benzimidazol-2-yl)amino]pyridin-4-yl}methyl)piperazin-1-yl]methanone] | 3 |  |
| Cc1cccc(N2CCN(Cc3ccnc(Nc4nc5ccc(-c6nc(C)no6)cc5[nH]4)c3)CC2)n1 [Example 101.19, 6-(3-methyl-1,2,4-oxadiazol-5-yl)-N-(4-{[4-(6-methylpyridin-2-yl)piperazin-1-yl]methyl}pyridin-2-yl)-1H-benzimidazol-2-amine] | 340 |  |
| COc1c(-c2ccc3nc(Nc4cc(C(C)N5CCN(C(=O)C6CC6)CC5)ccn4)[nH]c3c2)ncnc1N1CCC1 (single isomer, unassigned) [Example 111.02, (4-{(1R or 1S)-1-[2-({6-[6-(azetidin-1-yl)-5-methoxypyrimidin-4-yl]-1H-benzimidazol-2-yl}amino)pyridin-4-yl]ethyl}piperazin-1-yl)(cyclopropyl)methanone] | 1 |  |
| CC(C)(C)OC(=O)N1CCN(Cc2ccnc(Nc3nc4ccc(-c5ncccn5)cc4[nH]3)c2)CC1 [Example 180.01, tert-butyl 4-[(2-{[6-(pyrimidin-2-yl)-1H-benzimidazol-2-yl]amino}pyridin-4-yl)methyl]piperazine-1-carboxylate] | 576 |  |
| CC(c1ccnc(Nc2nc3ccc(-c4cc(Cl)ncn4)cc3[nH]2)c1)N1CCN(C(=O)OC(C)(C)C)CC1 (single isomer, unassigned) [Example 85.01, tert-Butyl 4-[(1R or 1S)-1-(2-{[6-(6-chloropyrimidin-4-yl)-1H-benzimidazol-2-yl]amino}pyridin-4-yl)ethyl]piperazine-1-carboxylate] | 5.7 |  |
| COc1cncnc1-c1ccc2nc(Nc3cc(C(C)N4CCN(C(=O)CC(F)(F)F)CC4)ccn3)[nH]c2c1 (racemic) [Example 35.02.01, (rac)-3,3,3-trifluoro-1-{4-[1-(2-{[6-(5-methoxypyrimidin-4-yl)-1H-benzimidazol-2-yl]amino}pyridin-4-yl)ethyl]piperazin-1-yl}propan-1-one] | 7.67 |  |
